Results from patent publication US8158621B2, “Methods of treating or preventing autoimmune diseases with 2,4-pyrimidinediamine compounds” (Rigel Pharmaceuticals, Inc., priority 2002, dated 2012).

The molecules below were run on cultured human mast cells (CHMC) (assay: CHMC low cell density IgE activation: tryptase assay). Settings: Homo sapiens, Mast cell, Low Density; read-out: CHMC anti-IgE Tryptase.
Assay type: cell-based
Procedure: Pellet CHMC cells (980 rpm, 10 min) and resuspend in pre-warmed MT. Add 65 ul of cells to each 96-well plate. Depending on the degranulation activity for each particular CHMC donor, load 1000-1500 cells/well. Mix four times followed by a 1 hr incubation at 37° C. […] Stimulate cells by adding 25 ul of 6× anti-IgE solution to the appropriate plates. Add 25 ul MT to un-stimulated control wells. Mix twice following addition of the anti-IgE. Incubate at 37° C. for 30 minutes. […] Spin plates at 1000 rpm for 10 min to pellet cells. Transfer 25 ul of supernatant to a 96-well black bottom plate and add 100 ul of freshly diluted tryptase substrate solution to each well. Incubate plates at room temperature for 30 min.

| Structure (SMILES) | IC50 [nM] |
| --- | --- |
| Fc1cnc(Cl)nc1Nc1ccc(Cl)nc1 [Compound R920400] | > 10000 |
| Cc1ccnc(Nc2nc(Cl)ncc2F)c1 [Compound R920401] | > 10000 |
| Fc1cnc(Cl)nc1Nc1cccc(OC(F)(F)F)c1 [Compound R920402] | > 10000 |
| Fc1cnc(Cl)nc1Nc1ccc2ncccc2c1 [Compound R920409] | > 10000 |
| OCCOc1ccc(Nc2ncc(F)c(Nc3cccc(O)c3)n2)cc1 [Compound R935155] | 401 |
| Fc1cnc(Cl)nc1Nn1cccc1 [Compound R935275] | > 10000 |

Same assay, conditions: low cell density; read-out: CHMC anti-IgE Tryptase

| Structure (SMILES) | IC50 [nM] |
| --- | --- |
| CNC(=O)COc1cccc(Nc2ncc(F)c(Nc3ccc(OC4CCC(N)CC4)c(Cl)c3)n2)c1 (mixture of isomers) [Compound R945403] | 1700 |
| CCNC1CCC(Oc2ccc(Nc3nc(Nc4cccc(OCC(=O)NC)c4)ncc3F)cc2Cl)CC1 (mixture of isomers) [Compound R945411] | 2860 |
| CC1Oc2ccc(Nc3nc(Nc4ccc5c(c4)C(N)CCO5)ncc3F)cc2NC1=O (mixture of isomers) [Compound R950438] | 888 |
| CNC(=O)COc1cccc(Nc2ncc(F)c(Nc3ccc4c(c3)C(NC)CCO4)n2)c1 (racemic) [Compound R950412] | 301 |
| CNC(=O)COc1cccc(Nc2ncc(F)c(Nc3ccc4c(c3)C(NC(=O)CN(C)C)CCO4)n2)c1 (racemic) [Compound R950416] | 2270 |
| COc1cc(Nc2ncc(F)c(Nc3ccc4c(c3)C(NC(=O)OC(C)(C)C)CCO4)n2)cc(OC)c1 (racemic) [Compound R950425] | 1150 |
| COc1ccc(Nc2ncc(F)c(Nc3ccc4c(c3)C(NC(=O)OC(C)(C)C)CCO4)n2)cc1Cl (racemic) [Compound R950427] | 1900 |
| CC(C)(C)OC(=O)NC1CCOc2ccc(Nc3nc(Nc4ccc(Cl)c(Cl)c4)ncc3F)cc21 (racemic) [Compound R950429] | 3970 |
| COc1cc(Nc2nc(Nc3ccc4c(c3)C(NC(=O)OC(C)(C)C)CCO4)ncc2F)cc(OC)c1 (racemic) [Compound R950432] | 2420 |
| CC(C)(C)OC(=O)NC1CCOc2ccc(Nc3ncc(F)c(Nc4ccc(Cl)c(Cl)c4)n3)cc21 (racemic) [Compound R950433] | > 10000 |
| COc1cc(Nc2nc(Nc3ccc4c(c3)C(N)CCO4)ncc2F)cc(OC)c1 (racemic) [Compound R950436] | 5530 |
| NC1CCOc2ccc(Nc3ncc(F)c(Nc4ccc(Cl)c(Cl)c4)n3)cc21 (racemic) [Compound R950437] | 811 |
| CNC(=O)COc1cccc(Nc2ncc(F)c(Nc3ccc4c(c3)C(NS(=O)(=O)c3ccc(C)cc3)CCO4)n2)c1 (racemic) [Compound R950493] | 1890 |
| CNC(=O)COc1cccc(Nc2ncc(F)c(Nc3ccc4c(c3)C(NS(C)(=O)=O)CCO4)n2)c1 (racemic) [Compound R950494] | > 10000 |
| Cn1ncc2ccc(Nc3ncc(F)c(Nc4ccc5c(c4)NC(C)(C)CO5)n3)cc21 [Compound R908592] | 50 |
| COc1c(Cl)cc(Nc2ncc(F)c(Nc3ccc4c(c3)C(=O)NC(=O)C4(C)C)n2)cc1Cl [Compound R908955] | 293 |
| CNC(=O)COc1cccc(Nc2ncc(F)c(Nc3ccc(OC(C)C)c(Cl)c3)n2)c1 [Compound R926973] | 284 |
| CNC(=O)COc1cccc(Nc2ncc(F)c(Nc3cc(C)c(OC)c(Cl)c3)n2)c1 [Compound R926974] | 293 |
| COc1cc(Nc2ncc(F)c(Nc3ccc(N4CCOCC4)c(Cl)c3)n2)cc(OC)c1 [Compound R926986] | 345 |
| COc1cc(Nc2ncc(F)c(Nc3ccc(N4CCOCC4)c(Cl)c3)n2)cc(C(F)(F)F)c1 [Compound R926987] | 10000 |
| CNC(=O)COc1cccc(Nc2ncc(F)c(Nc3ccc(OC)c(Cl)c3)n2)c1 [Compound R926989] | 199 |
| COc1ccc(Nc2nc(Nc3cc(Cl)cc(Cl)c3)ncc2F)cc1Cl [Compound R926990] | 11300 |
| COc1ccc(Nc2nc(Nc3cc(C)cc(C)c3)ncc2F)cc1Cl [Compound R926991] | 436 |

| Structure (SMILES) | IC50 [nM] |
| --- | --- |
| COc1ccc(Nc2nc(Nc3cc(C)c(C)c(C)c3)ncc2F)cc1Cl [Compound R926993] | 689 |
| Cc1cc(Nc2ncc(F)c(Nc3ccc4c(c3)NC(=O)C(C)(C)O4)n2)cc(C)c1C [Compound R926994] | 61 |
| COc1ccc(Nc2nc(Nc3ccc4c(c3)CC(C(=O)N(C)C)O4)ncc2F)cc1Cl (stereo not shown) [Compound R927052] | 678 |
| CN(C)C(=O)C1Cc2cc(Nc3ncc(F)c(Nc4ccc(OC(F)(F)F)c(Cl)c4)n3)ccc2O1 (stereo not shown) [Compound R927053] | 671 |
| COc1ccc(Nc2nc(Nc3cc(Cl)c(OC)c(Cl)c3)ncc2F)cc1Cl [Compound R927054] | > 10000 |
| COc1c(Cl)cc(Nc2ncc(F)c(Nc3ccc(OC(F)(F)F)c(Cl)c3)n2)cc1Cl [Compound R927055] | > 10000 |
| CNC(=O)COc1cccc(Nc2ncc(F)c(Nc3cc(Cl)c(OC)c(Cl)c3)n2)c1 [Compound R927057] | 370 |
| COc1c(Cl)cc(Nc2ncc(F)c(Nc3ccc(Cl)c(Cl)c3)n2)cc1Cl [Compound R927058] | 12200 |
| CC1(C)Oc2ccc(Nc3ncc(F)c(Nc4ccc(Cl)c(Cl)c4)n3)cc2NC1=O [Compound R927059] | 291 |
| COc1ccc(Nc2ncc(F)c(Nc3ccc4c(c3)NC(=O)C(C)(C)O4)n2)c(OC)n1 [Compound R927068] | 890 |
| COc1cc(Nc2ncc(F)c(Nc3ccc4c(c3)NC(=O)C(C)(C)O4)n2)cc(OC)c1 [Compound R927071] | 67 |
| COc1cc(Nc2ncc(F)c(Nc3ccc4c(c3)NC(=O)C(C)(C)O4)n2)cc(OC)c1 [Compound R927072] | 64 |
| COc1cc(Nc2ncc(F)c(Nc3ccc4c(c3)NC(=O)C(C)(C)O4)n2)cc(OC)c1 [Compound R927073] | 66.8 |
| Cc1cc(C)cc(Nc2ncc(F)c(Nc3ccc4c(c3)NC(=O)C(C)(C)O4)n2)c1 [Compound R927076] | 71 |
| Cc1cccc(C)c1Nc1ncc(F)c(Nc2ccc(Cl)c(Cl)c2)n1 [Compound R927079] | 599 |
| OCCCn1ncc2cc(Nc3ncc(F)c(Nc4ccc(F)c(F)c4)n3)ccc21 [Compound R935386] | 291 |
| CCOC(=O)CCn1ncc2cc(Nc3ncc(F)c(Nc4ccc(Cl)c(Cl)c4)n3)ccc21 [Compound R935389] | 877 |
| CNC(=O)CCn1ncc2cc(Nc3ncc(F)c(Nc4ccc(Cl)c(Cl)c4)n3)ccc21 [Compound R935390] | 544 |
| Cn1ncc2ccc(Nc3nc(Cl)ncc3F)cc21 [Compound R935394] | > 10000 |
| Cc1cc(Nc2ncc(F)c(Nc3ccc4cnn(C)c4c3)n2)cc(Cl)c1O [Compound R935395] | 276 |
| COC(=O)c1ccc(Cn2cc3ccc(Nc4ncc(F)c(Nc5ccc(Cl)c(Cl)c5)n4)cc3n2)c(OC)c1 [Compound R935396] | 2580 |
| CNC(=O)c1ccc(Cn2ncc3ccc(Nc4ncc(F)c(Nc5ccc6c(c5)OCCO6)n4)cc32)c(OC)c1 [Compound R935399] | 909 |
| Fc1ccc(Nc2nc(Nc3ccc4cn[nH]c4c3)ncc2F)cc1F [Compound R935400] | 502 |

| Structure (SMILES) | IC50 [nM] |
| --- | --- |
| Cn1ncc2ccc(Nc3ncc(F)c(Nc4ccc(F)c(F)c4)n3)cc21 [Compound R935401] | 510 |
| COc1ccc(Nc2nc(Nc3ccc4cnn(C)c4c3)ncc2F)cc1Cl [Compound R935402] | 216 |
| CCOC(=O)CCn1ncc2ccc(Nc3ncc(F)c(Nc4ccc(Cl)c(Cl)c4)n3)cc21 [Compound R935403] | 821 |
| CNC(=O)CCn1ncc2ccc(Nc3ncc(F)c(Nc4ccc(Cl)c(Cl)c4)n3)cc21 [Compound R935404] | 581 |
| OCCCn1ncc2ccc(Nc3ncc(F)c(Nc4ccc(Cl)c(Cl)c4)n3)cc21 [Compound R935405] | 389 |
| CCOC(=O)CCn1ncc2ccc(Nc3ncc(F)c(Nc4ccc(OC)c(Cl)c4)n3)cc21 [Compound R935406] | 1170 |
| COc1ccc(Nc2nc(Nc3ccc4cnn(CCCO)c4c3)ncc2F)cc1Cl [Compound R935407] | 393 |
| CNC(=O)CCn1ncc2ccc(Nc3ncc(F)c(Nc4ccc(OC)c(Cl)c4)n3)cc21 [Compound R935409] | 1170 |
| COc1cc(Nc2nc(Nc3ccc4c(cnn4C)c3)ncc2F)ccc1F [Compound R935410] | 417 |
| Cn1ncc2cc(Nc3ncc(F)c(Nc4ccc(Cl)c(F)c4)n3)ccc21 [Compound R935411] | > 10000 |
| COc1ccc(Nc2nc(Nc3ccc4c(cnn4C)c3)ncc2F)cc1OC [Compound R935412] | 696 |
| Fc1cc(Nc2nc(Nc3ccc4[nH]ncc4c3)ncc2F)ccc1Cl [Compound R935415] | 237 |
| COc1cc(Nc2nc(Nc3ccc4[nH]ncc4c3)ncc2F)ccc1F [Compound R935417] | 417 |
| COc1c(C)cc(Nc2ncc(F)c(Nc3ccc4cnn(C)c4c3)n2)cc1Cl [Compound R935419] | 230 |
| COc1cc(Nc2ncc(F)c(Nc3ccc4cnn(C)c4c3)n2)cc(OC)c1 [Compound R935420] | 561 |
| COc1cc(Nc2ncc(F)c(Nc3ccc4cnn(C)c4c3)n2)c(OC)cc1Cl [Compound R935421] | 2890 |
| COc1cc(Nc2ncc(F)c(Nc3ccc4cn[nH]c4c3)n2)cc(OC)c1 [Compound R935423] | 167 |
| Cn1ncc2ccc(Nc3nc(Nc4ccc5c(c4)NC(=O)C(C)(C)O5)ncc3F)cc21 [Compound R935424] | 628 |
| Cn1ncc2cc(Nc3ncc(F)c(Nc4ccc(F)c(Cl)c4)n3)ccc21 [Compound R935426] | > 10000 |
| Fc1ccc(Nc2nc(Nc3ccc4[nH]ncc4c3)ncc2F)cc1Cl [Compound R935428] | 1270 |
| CCOC(=O)CCn1ncc2ccc(Nc3ncc(F)c(Nc4ccc5c(c4)NC(=O)C(C)(C)O5)n3)cc21 [Compound R935434] | 308 |
